Calls of active or inactive are those of the source. The rule behind the calls is not given here.
Tested on: CCRIS mutagenicity, Ames/micronucleus/aberration tests
Assay: CCRIS mutagenicity studies
[1] = Test System: AMES SALMONELLA TYPHIMURIUM, Strain/Indicator: TA98, Metabolic Activation: NONE, Method: STANDARD PLATE
[2] = Test System: AMES SALMONELLA TYPHIMURIUM, Strain/Indicator: TA98, Metabolic Activation: RAT, LIVER, S-9, AROCLOR 1254, Method: STANDARD PLATE
[3] = Test System: AMES SALMONELLA TYPHIMURIUM, Strain/Indicator: TA100, Metabolic Activation: NONE, Method: STANDARD PLATE
[4] = Test System: AMES SALMONELLA TYPHIMURIUM, Strain/Indicator: TA1535, Metabolic Activation: NONE, Method: STANDARD PLATE
[5] = Test System: E. COLI, Strain/Indicator: WP2, Metabolic Activation: NONE, Method: STANDARD PLATE

## CC1(C)C(C=C(Cl)Cl)C1C(=O)OCc1cccc(Oc2ccccc2)c1 (stereo not given)
Test System: AMES SALMONELLA TYPHIMURIUM, Strain/Indicator: TA97A, Metabolic Activation: NONE, Method: STANDARD PLATE
  mutagenic call: inactive; negative
Test System: AMES SALMONELLA TYPHIMURIUM, Strain/Indicator: TA97A, Metabolic Activation: RAT, CECAL CELL FREE EXTRACT, Method: STANDARD PLATE
  mutagenic call: inactive; negative
Test System: AMES SALMONELLA TYPHIMURIUM, Strain/Indicator: TA97A, Metabolic Activation: RAT, LIVER, S-9, AROCLOR 1254, Method: STANDARD PLATE
  mutagenic call: inactive; negative
Test System: AMES SALMONELLA TYPHIMURIUM, Strain/Indicator: TA98, Metabolic Activation: NONE
  mutagenic call: active; positive
Test System: AMES SALMONELLA TYPHIMURIUM, Strain/Indicator: TA98, Metabolic Activation: NONE, Method: MICROSUSPENSION
  mutagenic call: inactive; negative
[1]
  mutagenic call: inactive; negative
Test System: AMES SALMONELLA TYPHIMURIUM, Strain/Indicator: TA98, Metabolic Activation: RAT, CECAL CELL FREE EXTRACT, Method: STANDARD PLATE
  mutagenic call: inactive; negative
[2]
  mutagenic call: inactive; negative
Test System: AMES SALMONELLA TYPHIMURIUM, Strain/Indicator: TA98, Metabolic Activation: RAT, LIVER, S-9, POLYCHLORINATED BIPHENYLS
  mutagenic call: inactive; negative
Test System: AMES SALMONELLA TYPHIMURIUM, Strain/Indicator: TA98, Metabolic Activation: S-9, Method: MICROSUSPENSION
  mutagenic call: inactive; negative
Test System: AMES SALMONELLA TYPHIMURIUM, Strain/Indicator: TA100
  mutagenic call: inactive; negative
Test System: AMES SALMONELLA TYPHIMURIUM, Strain/Indicator: TA100, Metabolic Activation: NONE
  mutagenic call: inactive; negative
Test System: AMES SALMONELLA TYPHIMURIUM, Strain/Indicator: TA100, Metabolic Activation: NONE, Method: MICROSUSPENSION
  mutagenic call: inactive; negative
[3]
  mutagenic call: inactive; negative
Test System: AMES SALMONELLA TYPHIMURIUM, Strain/Indicator: TA100, Metabolic Activation: RAT, CECAL CELL FREE EXTRACT, Method: STANDARD PLATE
  mutagenic call: inactive; negative
Test System: AMES SALMONELLA TYPHIMURIUM, Strain/Indicator: TA100, Metabolic Activation: RAT, LIVER, S-9, AROCLOR 1254, Method: STANDARD PLATE
  mutagenic call: inactive; negative
Test System: AMES SALMONELLA TYPHIMURIUM, Strain/Indicator: TA100, Metabolic Activation: S-9, Method: MICROSUSPENSION
  mutagenic call: inactive; negative
[4]
  mutagenic call: inactive; negative
Test System: AMES SALMONELLA TYPHIMURIUM, Strain/Indicator: TA1535, Metabolic Activation: RAT, LIVER, S-9, AROCLOR 1254, Method: STANDARD PLATE
  mutagenic call: inactive; negative
Test System: AMES SALMONELLA TYPHIMURIUM, Strain/Indicator: TA1537, Metabolic Activation: NONE, Method: STANDARD PLATE
  mutagenic call: inactive; negative
Test System: AMES SALMONELLA TYPHIMURIUM, Strain/Indicator: TA1537, Metabolic Activation: RAT, LIVER, S-9, AROCLOR 1254, Method: STANDARD PLATE
  mutagenic call: inactive; negative
Test System: CHINESE HAMSTER V-79, Strain/Indicator: V-79/6-THIOGUANINE, Metabolic Activation: NONE, Method: STANDARD PLATE
  mutagenic call: inactive; negative
Test System: CHINESE HAMSTER V-79, Strain/Indicator: V-79/6-THIOGUANINE, Metabolic Activation: RAT HEPATOCYTES, Method: STANDARD PLATE
  mutagenic call: inactive; negative
Test System: CHINESE HAMSTER V-79, Strain/Indicator: V-79/OUABAIN, Metabolic Activation: NONE, Method: STANDARD PLATE
  mutagenic call: inactive; negative
Test System: CHINESE HAMSTER V-79, Strain/Indicator: V-79/OUABAIN, Metabolic Activation: RAT HEPATOCYTES, Method: STANDARD PLATE
  mutagenic call: inactive; negative
[5]
  mutagenic call: inactive; negative
Test System: E. COLI, Strain/Indicator: WP2, Metabolic Activation: RAT, LIVER, S-9, AROCLOR 1254, Method: STANDARD PLATE
  mutagenic call: inactive; negative

## CCc1c2ccccc2cc2ccc3ccccc3c12
Test System: AMES SALMONELLA TYPHIMURIUM, Strain/Indicator: TA98, Method: STANDARD PLATE
  mutagenic call: inactive; negative
Test System: AMES SALMONELLA TYPHIMURIUM, Strain/Indicator: TA100, Metabolic Activation: RAT, LIVER, S-9, PHENOBARBITAL, Method: STANDARD PLATE
  mutagenic call: inactive; negative
Test System: AMES SALMONELLA TYPHIMURIUM, Strain/Indicator: TA100, Method: STANDARD PLATE
  mutagenic call: inactive; negative

## CC[C@@]1(O)C[C@H](O)c2c(cc3c(c2O)C(=O)c2c(O)cccc2C3=O)[C@H]1C(=O)OC
[1]
  mutagenic call: active; positive
[2]
  mutagenic call: active; positive
[3]
  mutagenic call: inactive; negative
Test System: AMES SALMONELLA TYPHIMURIUM, Strain/Indicator: TA1538, Metabolic Activation: NONE, Method: STANDARD PLATE
  mutagenic call: inactive; negative

## c1ccc2c(COCC3CO3)cccc2c1 (stereo not given)
[3]
  mutagenic call: active; positive
[4]
  mutagenic call: active; positive

## Cc1ccc(C2CO2)cc1C (stereo not given)
[5]
  mutagenic call: active; positive
Test System: E. COLI, Strain/Indicator: WP2 UVRA, Metabolic Activation: NONE, Method: STANDARD PLATE
  mutagenic call: active; positive

## c1scc2c1-c1cscc1C1NC21 (stereo not given)
[1]
  mutagenic call: active; positive
[3]
  mutagenic call: active; positive
